Reference: patent publication US8211893B2, “Protein kinase C zeta inhibition to treat diabetic retinopathy” (The Penn State Research Foundation, priority 2006, dated 2012)
Entries after “also recorded” stand apart in the source; their conditions may differ. Each block holds one compound with its values, some of them ahead of it. No end group written: not given here. *: point of attachment. Myristoyl = CCCCCCCCCCCCCC(=O)*

Experiments:
[1] = test system: bovine retinal endothelial cells (BREC); test: In vitro permeability assay, VEGF stimulated 70 kDa RITC-dextran flux across BREC monolayer on transwell filters; type: cell-based; conditions: for effect on VEGF stimulated endothelial permeability to 70 kDa RITC-dextran: peptide inhibitor 50 nM
Protocol: Endothelial cells are grown to confluence on transwell filters. After the cells have grown to confluence, an additional 2 to 4 days is necessary to allow formation of a tight barrier. This may vary depending on the cell preparation.
Solute flux is measured by applying 10 micromolar or 20 micromolar RITC-dextran or FITC-BSA to the apical chamber of inserts with a confluent endothelial cell monolayer. The specific experiment may dictate when to perturb the system with, for example, a PKC inhibitor, relative to the time of measuring flux. Remember to consider the time for the perturbation to effect transport rates, for example, time for synthesis and assembly or disassembly of the junctional complex.
One half-hour after addition of fluorescent solute, 50 microliter samples are taken from the basolateral chamber. This is continued on the half-hour for up to four hours. The samples are placed into the 96 well black/clear bottom plate. A sample is taken from the apical chamber at the last time point and also placed in the 96 well plate. […] Fluorescence of each aliquot is quantified on a fluorescence plate reader. We use a FluorImager 595. A blank sample with media only but no fluorescent marker should be used for background subtraction. The rate of diffusive flux (Po) is calculated by the following formula at each time point: Po=[(FA/Δt)VA]/(FLA) where Po=diffusive flux (cm/s); FA=basolateral fluorescence; FL=apical fluorescence; Δt=change in time; A=surface area of the filter (cm^2); VA=volume of the basolateral chamber (cm^3). Note that unless the volume removed from the basolateral chamber is replaced, the volume in the basolateral chamber changes for each time point calculated. The data may be reduced as a rate over the total time course of the experiment if the change remains linear. This is done by plotting the change in fluorescence accumulated in the basolateral chamber corrected for fluorescence in the apical chamber, volume and area versus time and then determining the slope of the straight line or rate of diffusive flux, Po.
The fluorescence obtained from each time point is normalized to the fluorescence in the apical chamber. Next this ratio is corrected for the volume in the bottom chamber and this corrected ratio is plotted verses time to determine the rate of fluorescent molecule accumulation by obtaining the slope. Finally, this slope is converted from minutes to seconds and divided by the area of the filter yielding the diffusive flux in cm/s.
Bovine retinal endothelial cells (BREC) are grown to confluence on transwell filters (Costar) and treated with hydrocortisone (100 nM) to induce barrier properties. PKC zeta peptide inhibitor (50 nM, Calbiochem) is applied to the cells 30 min before addition of fluorescent-labeled tracer and VEGF (50 ng/mL, R&D Systems) is applied to the cells for 15 min before addition of tracer. RITC-labeled 70 kDa dextran (Sigma) is used as a tracer for cell permeability measures and is applied to the apical chamber at 10 micromolar. Samples are drawn from the basolateral chamber over a 4 h time course and the rate of tracer accumulation is used to determine monolayer permeability, Po, in cm/s. FIG. 2 illustrates the results of the use the myristoylated peptide inhibitor of PKC zeta on endothelial permeability to 70 kDa RITC-dextran.
Bovine retinal endothelial cells (BREC) are grown to confluence on transwell filters (Costar) and treated with hydrocortisone (100 nM) to induce barrier properties. PKC zeta peptide inhibitor (PKCζ 1) of SEQ ID No. 1 (Calbiochem) is applied to the cells at concentrations of 6.25 nM, 12.5 nM, 25 nM, and 50 nM, 30 min before addition of fluorescent-labeled tracer and VEGF (50 ng/mL, R&D Systems) is applied to the cells for 15 min before addition of tracer. […]

[2] = molecular target: T1, PKC-zeta (Homo sapiens, UniProt Q05513); test: IC50 determination for PKC-zeta; type: biochemical; conditions: read-out: half-maximal inhibitory concentration, IC50, for PKC-zeta
T1 sequence (Q05513 1-592): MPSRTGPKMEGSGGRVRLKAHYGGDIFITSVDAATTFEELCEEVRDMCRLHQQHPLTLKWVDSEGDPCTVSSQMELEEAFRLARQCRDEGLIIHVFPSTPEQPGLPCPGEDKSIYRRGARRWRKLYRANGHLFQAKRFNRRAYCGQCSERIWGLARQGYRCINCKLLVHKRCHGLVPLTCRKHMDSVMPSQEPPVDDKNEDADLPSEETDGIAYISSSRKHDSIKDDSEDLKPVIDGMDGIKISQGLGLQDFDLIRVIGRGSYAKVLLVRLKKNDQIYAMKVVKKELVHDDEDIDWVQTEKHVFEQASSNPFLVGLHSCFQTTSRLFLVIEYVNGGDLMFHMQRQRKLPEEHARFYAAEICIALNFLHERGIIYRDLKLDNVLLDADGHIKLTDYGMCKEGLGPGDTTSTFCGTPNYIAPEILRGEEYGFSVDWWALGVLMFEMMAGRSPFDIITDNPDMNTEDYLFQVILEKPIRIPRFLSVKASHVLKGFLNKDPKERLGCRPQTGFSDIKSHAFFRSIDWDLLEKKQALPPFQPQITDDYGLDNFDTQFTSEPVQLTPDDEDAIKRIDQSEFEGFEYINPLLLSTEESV
Protocol: Methods described in this example are used to determine the half-maximal inhibitory concentration, IC50, of a particular PKC zeta inhibitor. A PKC zeta inhibitor is incubated with […] in vitro by addition of the inhibitor to cultured BREC cells, followed by the addition of a labeled permeability marker, 70 kDa RITC dextran.

[3] = test system: BREC cultures; test: Invitrogen Live/Dead assay, calcein AM and ethidium homodimer-1; type: cell-based; conditions: 10 micromolar, 24 h, confluent BREC, alone or with VEGF; listed as PKC-zeta I1
Protocol: Cell viability is measured using the Invitrogen Live/Dead assay according to manufacturer's instructions. Confluent BREC cultures are treated with 10 micromolar PKC-zeta I1 for 24 h. Cell viability is measured with calcein AM incorporation and cell death is measured by ethidium homodimer-1 staining followed by fluorescence quantification on a Molecular Devices Gemini fluorescence plate reader.

[4] = test system: retinal albumin flux after VEGF treatment; test: In vivo VEGF induced retinal permeability, Evan's blue bound albumin flux; conditions: rat, intraocular injection with VEGF 50 ng, 5 h
Excerpt: Vascular permeability is quantified in this in vivo model by measuring albumin leakage form blood vessels into the retina. Evans blue is an acid dye of the diazo group that noncovalently binds to albumin in the blood, allowing the breakdown in blood-retinal barrier to be detected when increased vessel leakage is extravasated into the interstitial space.
Rats are used in this example and each animal is weighed and the body weight (BW) recorded for anaesthetic and dye injections. Each animal is anesthetized by intramuscular injection of 1 microliter/g BW a Ketamine/Xylazine mixture equal to […]/6.67 mg Xylazine/kg BW. […]
Both eyes are enucleated and bisected at the equator to harvest the retinas which are optionally dried thoroughly in a Speed-Vac for 5 hours. The weight of the retinas is measured with an analytical balance. […]
The obtained plasma samples are diluted 1:10000 with formamide. […] The absorbance in each well is measured at 620 and 740 nm with a plate reader. The background-subtracted absorbance (A620-A740) is calculated for each sample and the dye concentration is determined using the standard curve. […]
The PKC-zeta I1 is effective at reducing retinal albumin flux in vivo after VEGF treatment. […] Flux to albumin is measured using the albumin binding dye Evan's blue. […] Evan's blue is eluted from the retinas in formamide and read spectrophotometrically. […]

[5] = molecular target: T1, PKC-zeta; test: In vitro screen for PKC zeta inhibitors, Kinase-Glo Luminescent Kinase assay with CREBtide substrate; type: biochemical; set-up: purchased Biomol International SE-413; conditions: tested at 100 micromolar; relative to compound of formula (I)
Protocol: A screen for PKCzeta inhibitors was developed using recombinant human enzyme from Biomol International (SE-413) and CREBtide (Biomol P195) as the substrate. PKCzeta is incubated for 8 min at 30° C. in 50 microliters of buffer containing 5 mM MgCl2, 100 micromolar Na3VO4, 100 micromolar NaP2O7, 1 mM NaF. 100 micromolar PMSF, 50 mM Tris (pH 7.5), 4 micrograms of phosphatidylserine, 50 micromolar ATP, and a substrate peptide, KRREILSRRPSYR. The substrate peptide may be chemically synthesized, recombinantly produced or obtained commercially by the trade name CREBtide. Approximately 9,000 compounds from the DIVERSet collection of the ChemBridge Corporation (San Diego, Calif.) were tested at a final concentration of 100 micromolar, using the Kinase-Glo™ Luminescent Kinase assay (Promega) to measure residual ATP levels after the kinase reaction as described by the manufacturer. Compounds are identified as having inhibitory activity when they reduce PCK zeta activity by at least 50% when tested at a concentration of 100 micromolar.

Compound: CN(C)CCCn1cc(C2=C(c3c[nH]c4ccccc34)C(=O)NC2=O)c2ccccc21 [bisindoylmaleimide I]
effect on VEGF stimulated dextran permeability ([1]; bisindoylmaleimide I 5 micromolar, 30 min before tracer, VEGF 50 ng/mL, BREC): partly reduces VEGF stimulated permeability

Compound: CCOC(=O)c1c(NC(C)=O)sc(/C(C)=N/O)c1-c1ccccc1 [formula (I), ethyl (5E)-2-acetylimino-5-[1-(hydroxyamino)ethylidene]-4-phenyl-thiophene-3-carboxylate]
IC50 [2]: 10 µM | cell death (ethidium homodimer-1 staining) [3]: no increase in cell death; also recorded: does not alter cell viability or increase cell death | cell viability (calcein AM incorporation) [3]: no loss of cell viability; also recorded: does not alter cell viability | effect on VEGF induced endothelial permeability in vitro ([1]; PKC-zeta I1 at 10 and 25 micromolar, 30 min before tracer, VEGF 50 ng/mL): completely blocks VEGF induced endothelial permeability; also recorded: effectively blocks VEGF induced permeability in vitro | effect on baseline endothelial permeability ([1]; PKC-zeta I1 at 10 and 25 micromolar, no VEGF): reduces baseline permeability | reduction of Evan's blue bound albumin flux ([4]; about 10 micromolar final concentration in the eye): 50% | effect on VEGF induced permeability in vivo ([4]; about 10 micromolar in the eye): blocks VEGF induced permeability in vivo

inhibits PKC zeta with x-fold greater efficacy than the compound of formula (I) [5]: 1.2 fold
Compound: CCOC(=O)c1c(NC(=S)N2CCN(S(C)(=O)=O)CC2)sc(C)c1-c1ccccc1 [formula (III)]

inhibits PKC zeta with x-fold greater efficacy than the compound of formula (I) [5]: 1.8 fold
Compound: CC(C)OC(=O)c1c(-c2ccc(Cl)c(Cl)c2)csc1N [formula (IV)]

inhibits PKC zeta with x-fold greater efficacy than the compound of formula (I) [5]: 2.6 fold
Compound: CCOC(=O)c1c(NC(C)=O)sc(C)c1-c1ccc(OC)cc1 [formula (V)]

Compound: myr-SIYRRGARRWRKL (Myristoyl-SIYRRGARRWRKL)
effect on VEGF stimulated endothelial permeability to 70 kDa RITC-dextran ([1]; 30 min before tracer, VEGF 50 ng/mL, BREC): reduces and prevents a VEGF stimulated increase in permeability | effect on VEGF stimulated endothelial permeability to 70 kDa RITC-dextran ([1]; 30 min before tracer, VEGF 50 ng/mL, BREC, listed as myristoylated peptide inhibitor of PKC zeta): reduced or prevented permeability | dose dependence of effect on VEGF stimulated endothelial permeability ([1]; peptide inhibitor 6.25, 12.5, 25 and 50 nM, VEGF 50 ng/mL, BREC): reduces VEGF stimulated endothelial permeability in a dose dependent manner
